Assays:
FRAP assay = conditions: Trolox equivalents; 60 min, 37 °C; n.a. = not active
Experimental: The Ferric Reducing Antioxidant Power (FRAP) test involves reduction of the ferric 2,4,6-tripyridyl-s-triazine complex [Fe(TPTZ)2]^3+ to an intense-blue ferrous complex [Fe(TPTZ)2]^2+ [92], as previously reported. Results are given as Trolox Equivalents (TE).
The FRAP (ferric reducing antioxidant power) assay proposed by Benzie and Strain [92] was modified to be performed in 96-well microplates as described in detail in [53]. The FRAP reagent contained 2.5 mL of 10 mM TPTZ (2,4,6-tris(2-pyridyl)-s-triazine, Sigma-Aldrich) solution in 40 mM HCl, 2.5 mL of 20 mM FeCl3 (Sigma-Aldrich) in distilled water and 25 mL of 0.3 M acetate buffer (pH 3.6). Aliquots of 10 µL of the test compound dissolved in DMSO (0.5 mM) were placed in quadruplicate. Absorbance was measured at a wavelength of 593 nm after 60 min incubation at 37 °C. In each case, Trolox was used as a reference compound to obtain the standard curve. The AO activity was calculated with respect to the activity of Trolox and expressed as Trolox equivalents (TE)—the values calculated as the ratio of the concentrations of Trolox and the test compound resulting in the same effect on ferric reducing activity.

[1] = Metal chelation by UV-Vis spectroscopy, Cu2+; conditions: ethanol, 25 °C; compound and metal 40 μM; difference spectra; two bands per compound
EeAChE PAS = biological target: T1, EeAChE PAS (Electrophorus electricus, UniProt O42275); format: binding; conditions: compound 20 µM; EeAChE 7 µM; propidium iodide 8 µM
T1 construct: The enzyme was electric eel AChE (EeAChE type VI-S, lyophilized powder, Sigma-Aldrich); purchased Sigma-Aldrich type VI-S; host or cells: electric eel (tissue-derived)
T1 sequence (O42275 24-633): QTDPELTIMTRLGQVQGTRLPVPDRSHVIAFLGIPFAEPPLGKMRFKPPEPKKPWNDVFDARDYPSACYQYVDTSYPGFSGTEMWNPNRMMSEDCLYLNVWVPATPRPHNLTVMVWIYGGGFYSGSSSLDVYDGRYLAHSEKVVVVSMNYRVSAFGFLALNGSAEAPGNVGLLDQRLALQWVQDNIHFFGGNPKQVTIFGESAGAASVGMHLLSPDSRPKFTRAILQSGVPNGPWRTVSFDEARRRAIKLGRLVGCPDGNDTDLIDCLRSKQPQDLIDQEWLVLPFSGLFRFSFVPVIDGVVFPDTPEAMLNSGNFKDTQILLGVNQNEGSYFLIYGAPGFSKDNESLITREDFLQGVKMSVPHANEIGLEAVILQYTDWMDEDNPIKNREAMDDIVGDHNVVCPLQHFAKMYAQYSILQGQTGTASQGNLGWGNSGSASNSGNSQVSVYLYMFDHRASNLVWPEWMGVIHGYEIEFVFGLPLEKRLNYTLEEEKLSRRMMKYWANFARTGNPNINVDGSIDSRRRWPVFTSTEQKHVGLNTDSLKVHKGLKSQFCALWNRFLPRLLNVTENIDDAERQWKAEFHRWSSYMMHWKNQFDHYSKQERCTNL
Source text: This method is widely used as a screening approach to assess the potential ability of compounds to block AChE-induced β-amyloid aggregation. This is because when the compounds bind to the AChE PAS, they prevent the binding of β-amyloid, thereby inhibiting its aggregation.
The enzyme was electric eel AChE (EeAChE type VI-S, lyophilized powder, Sigma-Aldrich). We selected this source of AChE for consistency with our other reports and because of the purity, specific activity, and lower cost compared to human AChE.
Propidium iodide (final concentration 8 μM) was then added for a further 15 min incubation, and the fluorescence spectrum was taken (530 nm excitation and 600 nm emission) using a FLUOStar Optima microplate reader. The same concentration of propidium iodide in the Tris buffer was used as the blank. Triplicate determinations were recorded and the results were calculated via the following equation:% Displacement = 100 − (IFAChE+ Propidium + inhibitor/IFAChE + Propidium) × 100, where IFAChE + Propidium = fluorescence intensity of propidium iodide associated with AChE in the absence of the test compound (taken as 100%), and IFAChE + Propidium + inhibitor = fluorescence intensity of propidium iodide associated with AChE in the presence of the test compound.

porcine liver CES = assay: In vitro CES inhibition (4-NPA substrate); format: biochemical; conditions: compound 20 µM, n.a. = not active
Source text: (§1) Assessment of the esterase profile of new potential anti-AD molecules enables the estimation of both the primary pharmacological effects of the tested compounds—their inhibition of AChE and BChE—and their possible unwanted side effect—inhibition of CES, which hydrolyzes numerous ester-containing drugs. For the esterase profile evaluation, human erythrocyte AChE, equine serum BChE, and porcine liver CES were used. These sources of BChE and CES were employed because of their relatively low cost, high sequence identity to human enzymes, and the exploratory character of this work.
(§2) Chromophore absorbances were measured with a FLUOStar Optima microplate reader (BMG Labtech, Ortenberg, Germany). […] Initially, we used a single concentration of 20 µM for all compounds.

β-amyloid (1–42) (Aβ42) = β-amyloid (1–42) (Aβ42) (Homo sapiens, UniProt P05067); assay: Inhibition of Aβ42 self-aggregation (thioflavin T); format: biochemical; conditions: Aβ42 50 µM; compound 100 µM; 24 h, 37 °C; thioflavin T; read-out: Inhibition of Aβ42 Self-Aggregation
Sequence of β-amyloid (1–42) (Aβ42) (P05067 672-713 limits assumed): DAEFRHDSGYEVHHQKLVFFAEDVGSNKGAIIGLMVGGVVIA
Experimental: The inhibitory activity of tested hybrids against the self-aggregation of Aβ42 was determined in vitro using the thioflavin T (ThT) fluorimetric assay. According to [84], the ThT test is ideal for preliminary screening of inhibitors of Aβ42 self-aggregation, as it enables the quantitative testing of large numbers of compounds within a relatively short time.
The influence of the inhibitory effect of the test compounds toward Aβ42 self-aggregation was determined using the thioflavin T (ThT) fluorescence method with minor modifications. This assay is based on a specific interaction between the fluorescent dye thioflavin T that binds to the β-sheets of assembled amyloid fibrils leading to a significant increase in fluorescence signal. Therefore, the decrease in ThT fluorescence correlates with the ability of the studied compounds to inhibit the formation of amyloid aggregates.
One mg of lyophilized HFIP-pretreated Aβ42 from BACHEM (Bubendorf, Switzerland) was dissolved in DMSO to obtain a stable initial solution ([Aβ42] = 500 μM); then it was aliquoted and stored at −20 °C.
For the measurement of Aβ42 self-aggregation and amyloid fibril inhibition studies by the tested compounds, aliquots of 500 μM Aβ42 stock solution were diluted in 215 mM Na-phosphate buffer pH = 8.0 to a final concentration of 50 μM Aβ42. Then the samples were incubated for 24 h at 37 °C without stirring in the absence (base level of Aβ42 self-aggregation, control) or presence of the test compounds. Myricetin and propidium iodide were used as reference compounds (positive controls). All compounds were used in a concentration of 100 µM. To quantify Aβ42 fibril formation, after incubation, 5 μM ThT in 50 mM glycine-NaOH buffer pH 8.5 was added to the solutions to a final concentration of 4 μM ThT and the fluorescence was measured at 440 nm (excitation) and 485 nm (emission). Analyses were performed with a FLUOStar Optima microplate reader (LabTech, Ortenberg, Germany). The blanks consisted of 215 mM Na-phosphate buffer, pH = 8.0, 20% (v/v) DMSO or test compounds, respectively. Each assay was run in triplicate.

human erythrocyte AChE = biological target: T2, human erythrocyte AChE (Homo sapiens, UniProt P22303); assay: biochemical; conditions: mean ± SEM, n = 3, read-out: Inhibitory activity against AChE, IC50
T2 construct: human erythrocyte AChE, equine serum BChE, and porcine liver CES were used; purchased Sigma-Aldrich; host or cells: human erythrocytes (tissue-derived)
T2 sequence (P22303 32-617 isoform P22303-2 limits assumed): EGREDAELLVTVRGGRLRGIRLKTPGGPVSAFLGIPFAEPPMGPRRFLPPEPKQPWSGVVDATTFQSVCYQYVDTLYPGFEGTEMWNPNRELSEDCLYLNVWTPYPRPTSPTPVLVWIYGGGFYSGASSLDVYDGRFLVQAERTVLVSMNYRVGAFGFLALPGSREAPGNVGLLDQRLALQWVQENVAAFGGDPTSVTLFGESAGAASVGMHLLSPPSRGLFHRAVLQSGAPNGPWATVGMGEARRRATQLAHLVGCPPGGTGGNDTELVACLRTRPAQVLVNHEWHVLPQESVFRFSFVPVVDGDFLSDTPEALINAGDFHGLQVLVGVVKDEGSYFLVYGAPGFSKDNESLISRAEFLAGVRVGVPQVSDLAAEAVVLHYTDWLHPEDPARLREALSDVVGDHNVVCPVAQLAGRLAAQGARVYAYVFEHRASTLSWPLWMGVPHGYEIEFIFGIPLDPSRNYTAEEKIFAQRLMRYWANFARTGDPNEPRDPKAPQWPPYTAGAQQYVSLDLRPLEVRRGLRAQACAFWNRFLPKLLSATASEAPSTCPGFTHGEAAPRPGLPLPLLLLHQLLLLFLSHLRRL
Source text: as §1, §2

equine serum BChE = biological target: T3, equine serum BChE (Equus caballus, UniProt P81908); assay: biochemical; conditions: mean ± SEM, n = 3, read-out: Inhibitory activity against BChE, IC50
T3 construct: human erythrocyte AChE, equine serum BChE, and porcine liver CES were used; purchased Sigma-Aldrich; host or cells: equine serum (tissue-derived)
T3 sequence (P81908 whole entry): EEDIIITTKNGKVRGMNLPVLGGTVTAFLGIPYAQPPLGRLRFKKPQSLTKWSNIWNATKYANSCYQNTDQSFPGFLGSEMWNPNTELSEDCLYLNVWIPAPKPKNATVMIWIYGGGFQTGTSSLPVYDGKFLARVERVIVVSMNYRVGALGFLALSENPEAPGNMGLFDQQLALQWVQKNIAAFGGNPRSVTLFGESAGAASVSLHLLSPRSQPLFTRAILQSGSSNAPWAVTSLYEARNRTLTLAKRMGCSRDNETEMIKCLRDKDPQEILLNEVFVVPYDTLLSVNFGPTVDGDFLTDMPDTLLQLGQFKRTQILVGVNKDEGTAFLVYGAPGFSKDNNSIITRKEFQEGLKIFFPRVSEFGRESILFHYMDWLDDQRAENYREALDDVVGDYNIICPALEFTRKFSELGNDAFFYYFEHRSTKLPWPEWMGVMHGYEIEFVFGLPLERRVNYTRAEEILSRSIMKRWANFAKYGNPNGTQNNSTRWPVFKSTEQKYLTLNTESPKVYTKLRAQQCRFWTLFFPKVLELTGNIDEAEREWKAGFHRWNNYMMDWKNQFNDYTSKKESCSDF
Source text: as §1, §2

in vitro = format: cell-based; conditions: mouse
Experimental: […]. Accordingly, in the present work, we paid special attention to the study of the cytotoxic activity of compounds on primary cultures of mouse hepatocytes using standard MTT methodology.
The cytotoxicity of the compounds was evaluated using a primary culture of mouse hepatocytes isolated at the Center for Biotechnology and Bioengineering, Ural Federal University, Ekaterinburg, Russia, according to the standard method. Cells were seeded in 96-well plates in the inoculum dose of 1 × 10^4 cells/mL and cultured for 24 h in Dulbecco’s Modified Eagle Medium (DMEM), with 1% (w/v) glutamine in the presence of 10% (v/v) fetal bovine serum and gentamicin (50 mg/L) at 37 °C, with a humidified atmosphere of 5% (v/v) CO2. Cell viability was assessed using the standard MTT assay. The compounds were dissolved in DMSO and then in a nutrient medium, after which they were added to the wells with cells at final concentrations of 10^−7, 10^−6, 10^−5, and 10^−4 M. Hepatocytes were exposed to test compounds for 24 h at 37 °C, 95% relative humidity and 5% (v/v) CO2 atmosphere. After incubation, the medium was replaced with 100 μL of fresh medium containing MTT (0.5 mg/mL). The plates were then incubated at 37°C in a CO2 incubator for 2 h. Then the medium with MTT was removed and DMSO was added to dissolve the formazan crystals.
The results of the MTT assay were evaluated on a Tecan Infinite M200 PRO (Tecan Austria GmbH, Grödig, Austria) plate spectrophotometer at 570 nm by comparing the optical density of a formazan solution in the assay and control wells. The cell viability was expressed as the percentage of untreated control. The results were obtained from three independent experiments performed in six replicates. The IC50 (μM) values were calculated by the AAT Bioquest-calculator: (https://www.aatbio.com/tools/ic50-calculator, accessed on 1 December 2022) and expressed as a mean ± standard error of the mean (SEM). Statistical analysis was carried out using Microsoft Excel 2007 (Microsoft Corporation, Redmond, WA, USA) and Statistica 2009 (Tulsa, OK, USA) programs.

AChE = biological target: T4, AChE (Homo sapiens, UniProt P22303); assay: Kinetic study of AChE inhibition (Lineweaver-Burk); format: biochemical
T4 construct: human erythrocyte AChE, equine serum BChE, and porcine liver CES were used; purchased Sigma-Aldrich; host or cells: human erythrocytes (tissue-derived)
T4 sequence (P22303 32-617 isoform P22303-2 limits assumed): as the sequence (P22303 32-617 isoform P22303-2 limits assumed) above
Experimental: (§3) We assessed the mechanisms of AChE and BChE inhibition by performing a thorough analysis of enzyme kinetics. After a 5 min incubation at 25 °C (for temperature equilibration) with three increasing concentrations of inhibitor and six decreasing substrate concentrations, the residual enzyme activity was measured as described above for enzymatic assays.

eqBChE = biological target: T5, eqBChE (Equus caballus, UniProt P81908); assay: Kinetic study of BChE inhibition (Lineweaver-Burk); format: biochemical
T5 construct: human erythrocyte AChE, equine serum BChE, and porcine liver CES were used; purchased Sigma-Aldrich; host or cells: equine serum (tissue-derived)
T5 sequence (P81908 whole entry): as the sequence (P81908 whole entry) above
Experimental: Similar results were obtained for other tested compounds (Figures S61 and S62). The obtained values of inhibition constants (Ki = competitive component and αKi = non-competitive component) are shown in Table 2.
as §3

[2] = mixed-type inhibition, mean ± SEM

Compound	FRAP, TE (FRAP assay)	Shift of Absorbance, Cu(II) [1]	Propidium Displacement from EeAChE PAS (EeAChE PAS)	Inhibitory activity against CES, inhibition at 20 µM (porcine liver CES)	inhibition at 100 µM (β-amyloid (1–42) (Aβ42))	IC50 (human erythrocyte AChE)	IC50 (equine serum BChE)	IC50 at 24 h (in vitro)	αKi (non-competitive inhibition constant), AChE (AChE; [2])	Ki (AChE; read-out: Ki (competitive inhibition constant), AChE)	αKi (non-competitive inhibition constant), eqBChE (eqBChE; [2])	Ki (eqBChE; read-out: Ki (competitive inhibition constant), eqBChE)
COc1ccccc1C(=O)NCCCCCCNc1c2c(nc3ccccc13)CCCC2 [6b]	0.02	254 nm	12.5 ± 0.8%	8.0 ± 1.3%	30.8 ± 2.1%	646 ± 41 nM	37.7 ± 3.1 nM					
COc1ccccc1C(=O)NCCCCCCCCNc1c2c(nc3ccccc13)CCCC2 [6c]			14.1 ± 0.9%	10.6 ± 1.2%	55.6 ± 4.4%	150 ± 11 nM	47.5 ± 3.2 nM	3810 ± 70 nM	0.213 ± 0.012 µM	104 ± 4 nM	0.0314 ± 0.0025 µM	18.8 ± 1.1 nM
COc1cc(F)c(F)cc1C(=O)NCCCCCCNc1c2c(nc3ccccc13)CCCC2 [8b]	0.02		13.8 ± 0.9%	6.3 ± 0.9%	29.7 ± 2.3%	712 ± 67 nM	70.2 ± 4.2 nM	3950 ± 220 nM				

— article PMC9916969 (International Journal of Molecular Sciences, 2023)
